Data taken from US20230117034A1, “PYRAZOLOTRIAZINES” (Bayer Aktiengesellschaft, priority 2019, published 2023).

Biological target: CDK12/CycK (Homo sapiens, UniProt Q9NYV4)
Assay: CDK12/CycK high ATP kinase assay (TR-FRET, 2 mM ATP)
Format: biochemical
Details: 2 mM ATP (high ATP); median; read-out: CDK12/CyclinK, 2 mM ATP (high ATP), IC50-[mol/l] (median)
Procedure, shortened: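 Read-out is TR-FRET (Eu-anti-rabbit IgG, anti-phospho-c-Myc Ser62 antibody, streptavidin-XL665) after EDTA stop. Reaction ran 60 min at 22 °C using 1 µM biotin-peptide and high ATP (2 mM) with roughly 0.75 nM recombinant CDK12/CycK, after 15 min compound pre-binding; normalised emission ratios yield IC50.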

Chain of CDK12/CycK (Q9NYV4 with tags, fused parts or gaps): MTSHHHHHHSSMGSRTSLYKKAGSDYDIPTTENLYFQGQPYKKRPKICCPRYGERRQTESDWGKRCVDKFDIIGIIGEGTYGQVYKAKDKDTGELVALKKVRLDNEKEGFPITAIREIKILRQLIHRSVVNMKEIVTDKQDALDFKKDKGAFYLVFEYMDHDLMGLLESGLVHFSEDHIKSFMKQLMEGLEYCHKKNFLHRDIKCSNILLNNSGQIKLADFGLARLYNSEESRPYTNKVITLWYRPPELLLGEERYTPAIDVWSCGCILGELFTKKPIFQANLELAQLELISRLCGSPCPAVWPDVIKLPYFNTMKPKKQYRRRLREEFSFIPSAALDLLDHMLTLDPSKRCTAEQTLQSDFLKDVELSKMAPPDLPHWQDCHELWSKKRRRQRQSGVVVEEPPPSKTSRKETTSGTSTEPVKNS
Chain of CDK12/CycK (O75909 1-300 partner limits assumed): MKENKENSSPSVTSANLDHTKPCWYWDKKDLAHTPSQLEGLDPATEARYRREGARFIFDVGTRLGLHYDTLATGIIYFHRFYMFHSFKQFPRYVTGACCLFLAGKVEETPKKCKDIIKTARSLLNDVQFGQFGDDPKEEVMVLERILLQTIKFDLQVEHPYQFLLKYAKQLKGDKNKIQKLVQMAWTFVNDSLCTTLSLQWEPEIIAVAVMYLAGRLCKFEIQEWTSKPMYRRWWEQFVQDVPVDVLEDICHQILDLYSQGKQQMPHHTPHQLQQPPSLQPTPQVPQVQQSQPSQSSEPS

| Structure (SMILES) | IC50 |
| --- | --- |
| Brc1cnn2c(NCc3nc4ccccc4[nH]3)nc(N3C[C@H]4CC[C@@H]3CO4)nc12 (single isomer, unassigned) [Example 383, N-[(1H-benzimidazol-2-yl)methyl]-8-bromo-2-{[1R or S-(1R*,4R*)]-2-oxa-5-azabicyclo[2.2.2]octan-5-yl}pyrazolo[1,5-a][1,3,5]triazin-4-amine] | 4.97 µM |
| FC(F)(F)Oc1ccc2[nH]c(CNc3nc(N4C[C@H]5CC[C@@H](C4)N5)nc4c(Br)cnn34)nc2c1 [Example 382, 8-bromo-2-[(1R,5S)-3,8-diazabicyclo[3.2.1]octan-3-yl]-N-{[5-(trifluoromethoxy)-1H-benzimidazol-2-yl]methyl}pyrazolo[1,5-a][1,3,5]triazin-4-amine] | 0.823 µM |
| CN(c1nc(NCc2nc3ccccc3[nH]2)n2ncc(Br)c2n1)[C@H]1C[C@@H](O)C1 [Example 364, cis-3-[(4-{[(1H-benzimidazol-2-yl)methyl]amino}-8-bromopyrazolo[1,5-a][1,3,5]triazin-2-yl)(methyl)amino]cyclobutan-1-ol] | 6.67 µM |
| CN1CCC(Oc2nc(NCc3nc4ccccc4[nH]3)n3ncc(Br)c3n2)CC1 [Example 389, N-[(1H-benzimidazol-2-yl)methyl]-8-bromo-2-[(1-methylpiperidin-4-yl)oxy]pyrazolo[1,5-a][1,3,5]triazin-4-amine] | > 20 µM |
| Clc1cc2nc(CNc3nc(N4CC5CCC(C4)N5)nc4c(C5CC5)cnn34)[nH]c2cc1Cl [Example 324, 8-cyclopropyl-2-(3,8-diazabicyclo[3.2.1]octan-3-yl)-N-[(5,6-dichloro-1H-benzimidazol-2-yl)methyl]pyrazolo[1,5-a][1,3,5]triazin-4-amine] | 0.859 µM |
| CN1CCN(c2nc(NCc3nc4c(F)c(F)ccc4[nH]3)n3ncc(Cl)c3n2)CC1 [Example 358, 8-chloro-N-[(4,5-difluoro-1H-benzimidazol-2-yl)methyl]-2-(4-methylpiperazin-1-yl)pyrazolo[1,5-a][1,3,5]triazin-4-amine] | 11.6 µM |
| Fc1cccc(-c2nnc(CNc3nc(N4CCOCC4)nc4c(C(F)(F)F)cnn34)[nH]2)c1 [Example 385, N-{[5-(3-fluorophenyl)-4H-1,2,4-triazol-3-yl]methyl}-2-(morpholin-4-yl)-8-(trifluoromethyl)pyrazolo[1,5-a][1,3,5]triazin-4-amine] | 0.28 µM |
| CN(CC(C)(C)O)c1nc(NCc2nc3c(F)c(F)ccc3[nH]2)n2ncc(Cl)c2n1 [Example 359, 1-[(8-chloro-4-{[(4,5-difluoro-1H-benzimidazol-2-yl)methyl]amino}pyrazolo[1,5-a][1,3,5]triazin-2-yl)(methyl)amino]-2-methylpropan-2-ol] | 2.09 µM |
| CN1CCN(c2nc(NCc3nc4c(OC(F)(F)F)cccc4[nH]3)n3ncc(Br)c3n2)CC1 [Example 376, 8-bromo-2-(4-methylpiperazin-1-yl)-N-{[4-(trifluoromethoxy)-1H-benzimidazol-2-yl]methyl}pyrazolo[1,5-a][1,3,5]triazin-4-amine] | > 20 µM |
| CC[C@@H](CO)Nc1nc(NCc2nc3ccccc3[nH]2)n2ncc(Br)c2n1 [Example 367, (2S)-2-[(4-{[(1H-benzimidazol-2-yl)methyl]amino}-8-bromopyrazolo[1,5-a][1,3,5]triazin-2-yl)amino]butan-1-ol] | 2.93 µM |
| Fc1cccc2[nH]c(CNc3nc(N4CCOCC4)nc4c(Cl)cnn34)nc12 [Example 361, 8-chloro-N-[(4-fluoro-1H-benzimidazol-2-yl)methyl]-2-(morpholin-4-yl)pyrazolo[1,5-a][1,3,5]triazin-4-amine] | 1.43 µM |
| Brc1cnn2c(NCc3nc4ccccc4[nH]3)nc(N3CC4CCC(C3)O4)nc12 [Example 351, N-[(1H-benzimidazol-2-yl)methyl]-8-bromo-2-(8-oxa-3-azabicyclo[3.2.1]octan-3-yl)pyrazolo[1,5-a][1,3,5]triazin-4-amine] | 9.35 µM |
| Fc1cc(F)cc(-c2nnc(CNc3nc(N4CCOCC4)nc4c(C(F)(F)F)cnn34)[nH]2)c1 [Example 386, N-{[5-(3,5-difluorophenyl)-4H-1,2,4-triazol-3-yl]methyl}-2-(morpholin-4-yl)-8-(trifluoromethyl)pyrazolo[1,5-a][1,3,5]triazin-4-amine] | 0.115 µM |
| Cc1ccnc2[nH]c(CNc3nc(N4CCN(C)CC4)nc4c(C(C)C)cnn34)nc12 [Example 32, N-[(7-methyl-3H-imidazo[4,5-b]pyridin-2-yl)methyl]-2-(4-methylpiperazin-1-yl)-8-(propan-2-yl)pyrazolo[1,5-a][1,3,5]triazin-4-amine] | 18.5 µM |
| Fc1cc2nc(CNc3nc(N4C[C@H]5CC[C@@H](C4)N5)nc4c(C5CC5)cnn34)[nH]c2cc1Cl [Example 328, N-[(6-chloro-5-fluoro-1H-benzimidazol-2-yl)methyl]-8-cyclopropyl-2-[(1R,5S)-3,8-diazabicyclo[3.2.1]octan-3-yl]pyrazolo[1,5-a][1,3,5]triazin-4-amine] | 1.66 µM |
| CCNc1nc(NCc2nc(-c3ccc(C)cc3)c[nH]2)n2ncc(Br)c2n1 [Example 26, 8-bromo-N^2-ethyl-N^4-{[4-(4-methylphenyl)-1H-imidazol-2-yl]methyl}pyrazolo[1,5-a][1,3,5]triazine-2,4-diamine] | 3.21 µM |
| CN(CC(C)(C)O)c1nc(NCc2nc3cc(C(F)(F)F)ccc3[nH]2)n2ncc(C3CC3)c2n1 [Example 323, 1-{[8-cyclopropyl-4-({[5-(trifluoromethyl)-1H-benzimidazol-2-yl]methyl}amino)pyrazolo[1,5-a][1,3,5]triazin-2-yl](methyl)amino}-2-methylpropan-2-ol] | 2.85 µM |
| CC[C@H](CO)Nc1nc(NCc2nc3ccccc3[nH]2)n2ncc(Br)c2n1 [Example 368, (2R)-2-[(4-{[(1H-benzimidazol-2-yl)methyl]amino}-8-bromopyrazolo[1,5-a][1,3,5]triazin-2-yl)amino]butan-1-ol] | 4.84 µM |
| CN(CC(C)(C)O)c1nc(NCc2nc3cc(OC(F)(F)F)ccc3[nH]2)n2ncc(Br)c2n1 [Example 378, 1-{[8-bromo-4-({[5-(trifluoromethoxy)-1H-benzimidazol-2-yl]methyl}amino)pyrazolo[1,5-a][1,3,5]triazin-2-yl](methyl)amino}-2-methylpropan-2-ol] | 0.44 µM |
| CN1CCCN(c2nc(NCc3nc4ccccc4[nH]3)n3ncc(Br)c3n2)CC1 [Example 390, N-[(1H-benzimidazol-2-yl)methyl]-8-bromo-2-(4-methyl-1,4-diazepan-1-yl)pyrazolo[1,5-a][1,3,5]triazin-4-amine] | > 20 µM |
| CN1CCN(c2nc(NCc3nc4c(F)cccc4[nH]3)n3ncc(Cl)c3n2)CC1.O=CO [Example 362, formic acid 8-chloro-N-[(4-fluoro-1H-benzimidazol-2-yl)methyl]-2-(4-methylpiperazin-1-yl)pyrazolo[1,5-a][1,3,5]triazin-4-amine] | 13.1 µM |
| Brc1cnn2c(NCc3nc4ccccc4[nH]3)nc(N3C[C@H]4CC[C@@H]3CN4)nc12 (single isomer, unassigned) [Example 335, N-[(1H-benzimidazol-2-yl)methyl]-8-bromo-2-{[1R or S-(1R*,4R*)]-2,5-diazabicyclo[2.2.2]octan-2-yl}pyrazolo[1,5-a][1,3,5]triazin-4-amine] | 6.65 µM |
